Measured values: ChEMBL document CHEMBL1134948, “The antimicrobial natural product chuangxinmycin and some synthetic analogues are potent and selective inhibitors of bacterial tryptophanyl tRNA synthetase” (Bioorg Med Chem Lett, 2002)
In brackets after ≈: the same amount, converted by molar mass. Several values for one entry are separate records, joined by “and”; a condition that tells them apart may be missing. Equal values may be shown once. Activity calls are given as the source filed them. The calls are words filed in the database; no cut-off is given here.

Columns and labels:
[1] = Compound was tested for inhibitory activity against tryptophanyl tRNA synthetase in Staphylococcus aureus; type: nucleic-acid assay
Nucleic Acid [2] = assay: Binding affinity against Tryptophanyl tRNA synthetase was determined; type: nucleic-acid assay, Staphylococcus aureus
Staphylococcus aureus [3] = assay: Minimum inhibitory concentration against Staphylococcus aureus Oxford at a concentration of 32 ug/mL; type: functional, organism-based
Moraxella catarrhalis [4] = assay: Minimum inhibitory concentration against Moraxella catarrhalis 1502 at a concentration of 32 ug/mL; type: functional, organism-based
Haemophilus influenzae [5] = assay: Minimum inhibitory concentration against Haemophilus influenzae Q1 at a concentration of 32 ug/mL; type: functional, organism-based
Nucleic Acid [6] = assay: Compound was tested for inhibitory activity against tryptophanyl tRNA synthetase in Staphylococcus aureus; NI means no inhibition uM; type: nucleic-acid assay
Moraxella catarrhalis [7] = assay: Minimum inhibitory concentration against Moraxella catarrhalis 1502; type: functional
Staphylococcus aureus [8] = assay: Minimum inhibitory concentration against Staphylococcus aureus oxford; type: functional
Haemophilus influenzae [9] = assay: Minimum inhibitory concentration against Haemophilus influenzae Q1; type: functional
Nucleic Acid [10] = assay: Compound was tested for inhibitory activity against tryptophanyl tRNA synthetase in Staphylococcus aureus Oxford; No significant inhibition up to 20 uM concentration; type: nucleic-acid assay

C[C@H]1c2c[nH]c3cccc(c23)S[C@H]1C(=O)O [CHUANGXINMYCIN]
IC50 [1]: 30 nM and 200 nM | Ki (Nucleic Acid [2]): 20 nM

O=C([O-])[C@@H]1Sc2cccc3[nH]cc(c23)[C@@H]1CO.[Na+]
MIC (Staphylococcus aureus [3]): inactive | MIC (Moraxella catarrhalis [4]): inactive | MIC (Haemophilus influenzae [5]): inactive | IC50 (Nucleic Acid [6]): No inhibition

O=C1OC[C@H]2c3c[nH]c4cccc(c34)S[C@@H]12
MIC (Moraxella catarrhalis [7]): 16 µg/mL (≈ 69.2 µM) | MIC (Staphylococcus aureus [8]): 4 µg/mL (≈ 17.3 µM) | IC50 [1]: 230 nM | MIC (Haemophilus influenzae [9]): 16 µg/mL (≈ 69.2 µM)

CC1c2c[nH]c3cccc(c23)SC1c1nnn[nH]1 (stereo unspecified)
IC50 (Nucleic Acid [6]): No inhibition

COC(=O)C1Sc2cccc3[nH]cc(c23)C1C (stereo unspecified)
Activity (Nucleic Acid [10]): No significant inhibition up to 20 uM concentration

CC1c2c[nH]c3cccc(c23)SC1C#N (stereo unspecified)
IC50 [1]: 1100 nM

CC1c2c[nH]c3cccc(c23)SC1C(=O)NO (stereo unspecified)
IC50 (Nucleic Acid [6]): No inhibition

CC1c2c[nH]c3cccc(c23)SC1C=O (stereo unspecified)
IC50 [1]: 90 nM

CC1c2c[nH]c3cccc(c23)SC1C(N)=O (stereo unspecified)
Activity (Nucleic Acid [10]): No significant inhibition up to 20 uM concentration
